The results in this text go back to patent publication US7491819B1 (priority 2004, dated 2009).

This test deals with T1, HIV-integrase (Human immunodeficiency virus type 1 group M subtype B, UniProt P12497).
T1 construct: Recombinant integrase (0.26 ng) was incubated with the beads
The test can be described thus: HIV-Integrase Inhibition Activity (SPA bead strand-transfer assay). Format: biochemical. Conditions: Table 1; read-out: Activity (HIV-integrase inhibition, IC50 class). In short, it runs like this:
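Strand-transfer read-out: CPM from P33-labelled target DNA (0.1 fmol) joined to bead-bound biotin substrate DNA (5 pmole), with EDTA stop at 10 mM final. Integrase (0.26 ng) prebound to streptavidin SPA beads 90 min, 37° C, and washed before adding inhibitor.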
On to `COCc1ccc(-c2ccccc2CNC(=O)c2nc3n(c(=O)c2O)CCOC3(C)C)cc1` [Example 181, Pyrimido[2,1-c][1,4]oxazine-2-carboxamide, 4,6,7,9-tetrahydro-3-hydroxy-N-[[4′-(methoxymethyl)[1,1′-biphenyl]-2-yl]methyl]-9,9-dimethyl-4-oxo-], for which the IC50 lay in the range of 0.002 to 0.1 µM. Consider `CCC1(CC)OCCn2c1nc(C(=O)NCc1ccc(F)cc1)c(O)c2=O` [Example 42, Pyrimido[2,1-c][1,4]oxazine-2-carboxamide, 9,9-diethyl-N-[(4-fluorophenyl)methyl]-4,6,7,9-tetrahydro-3-hydroxy-4-oxo-], for which the IC50 lay within 0.002 to 0.1 µM. In the case of `CC1(C)OCCn2c1nc(C(=O)NCc1ccccc1-c1cccc(NS(C)(=O)=O)c1)c(O)c2=O` [Example 176, Pyrimido[2,1-c][1,4]oxazine-2-carboxamide, 4,6,7,9-tetrahydro-3-hydroxy-9,9-dimethyl-N-[[3′-[(methylsulfonyl)amino][1,1′-biphenyl]-2-yl]methyl]-4-oxo-] it was 0.002 to 0.1 µM; in that of `Cc1cc(Cl)ccc1CNC(=O)c1nc2n(c(=O)c1O)CCOC2(C)C` [Example 272, Pyrimido[2,1-c][1,4]oxazine-2-carboxamide, N-[(4-chloro-2-methylphenyl)methyl]-4,6,7,9-tetrahydro-3-hydroxy-9,9-dimethyl-4-oxo-], 0.002 to 0.1 µM; in that of `CCC1(CC)OCCn2c1nc(C(=O)NCc1ccc(F)cc1S(C)(=O)=O)c(O)c2=O` [Example 203, Pyrimido[2,1-c][1,4]oxazine-2-carboxamide, 9,9-diethyl-N-[[4-fluoro-2-(methylsulfonyl)phenyl]methyl]-4,6,7,9-tetrahydro-3-hydroxy-4-oxo-], 0.002 to 0.1 µM. Take `COc1ncc(-c2ccccc2CNC(=O)c2nc3n(c(=O)c2O)CCOC3(C)C)cc1Cl` [Example 193, Pyrimido[2,1-c][1,4]oxazine-2-carboxamide, N-[[2-(5-chloro-6-methoxy-3-pyridinyl)phenyl]methyl]-4,6,7,9-tetrahydro-3-hydroxy-9,9-dimethyl-4-oxo-]: the IC50 lay in the range of 0.002 to 0.1 µM. In the case of `CC1(C)OCCn2c1nc(C(=O)NCc1ccccc1N)c(O)c2=O` [Example 255, Pyrimido[2,1-c][1,4]oxazine-2-carboxamide, N-[(2-aminophenyl)methyl]-4,6,7,9-tetrahydro-3-hydroxy-9,9-dimethyl-4-oxo-] it was 0.002 to 0.1 µM; in that of `CC(C)Oc1cccc(CNC(=O)c2nc3n(c(=O)c2O)CCOC3(C)C)c1` [Example 263, Pyrimido[2,1-c][1,4]oxazine-2-carboxamide, 4,6,7,9-tetrahydro-3-hydroxy-9,9-dimethyl-N-[[3-(1-methylethoxy)phenyl]methyl]-4-oxo-], 0.002 to 0.1 µM; in that of `CC(C)Oc1ccc(CNC(=O)c2nc3n(c(=O)c2O)CCOC3(C)C)cc1` [Example 145, Pyrimido[2,1-c][1,4]oxazine-2-carboxamide, 4,6,7,9-tetrahydro-3-hydroxy-9,9-dimethyl-N-[[4-(1-methylethoxy)phenyl]methyl]-4-oxo-], > 1 µM. With `CC1(C)OCCn2c1nc(C(=O)NCc1cc(Br)c(F)cc1Br)c(O)c2=O` [Example 201, Pyrimido[2,1-c][1,4]oxazine-2-carboxamide, N-[(4-fluoro-2,5-dibromophenyl)methyl]-4,6,7,9-tetrahydro-3-hydroxy-9,9-dimethyl-4-oxo] the figure was 0.002 to 0.1 µM; with `CC1(C)OCCn2c1nc(C(=O)NCc1ccccc1-n1cncn1)c(O)c2=O` [Example 216, Pyrimido[2,1-c][1,4]oxazine-2-carboxamide, 4,6,7,9-tetrahydro-3-hydroxy-9,9-dimethyl-4-oxo-N-[[2-(1H-1,2,4-triazol-1-yl)phenyl]methyl]-], 0.002 to 0.1 µM; with `CN1CCN(c2cc(-c3ccccc3CNC(=O)c3nc4n(c(=O)c3O)CCOC4(C)C)ccn2)CC1` [Example 159, Pyrimido[2,1-c][1,4]oxazine-2-carboxamide, 4,6,7,9-tetrahydro-3-hydroxy-9,9-dimethyl-N-[[2-[2-(4-methyl-1-piperazinyl)-4-pyridinyl]phenyl]methyl]-4-oxo-], 0.1 to 1 µM. Consider `CC1(C)OCCCn2c1nc(C(=O)NCc1ccc(F)cc1)c(O)c2=O` [Example 44, 6H-Pyrimido[2,1-c][1,4]oxazepine-2-carboxamide, N-[(4-fluorophenyl)methyl]-4,7,8,10-tetrahydro-3-hydroxy-10,10-dimethyl-4-oxo-], for which the IC50 lay within 0.002 to 0.1 µM. Consider `CCC1OCCn2c1nc(C(=O)NCc1ccc(C)c(C)c1)c(O)c2=O` (centres unmarked) [Example 13, Pyrimido[2,1-c][1,4]oxazine-2-carboxamide, N-[(3,4-dimethylphenyl)methyl]-9-ethyl-4,6,7,9-tetrahydro-3-hydroxy-4-oxo-], for which the IC50 was 0.002 to 0.1 µM. Consider `CC1(C)OCCn2c1nc(C(=O)NCc1ccc(F)cc1N1CCCC1=O)c(O)c2=O` [Example 124, Pyrimido[2,1-c][1,4]oxazine-2-carboxamide, N-[[4-fluoro-2-(2-oxo-1-pyrrolidinyl)phenyl]methyl]-4,6,7,9-tetrahydro-3-hydroxy-9,9-dimethyl-4-oxo], for which the IC50 lay within 0.002 to 0.1 µM. Turning to `CCC1(CC)OCCn2c1nc(C(=O)NCc1ccccc1N1CCCCS1(=O)=O)c(O)c2=O` [Example 207, Pyrimido[2,1-c][1,4]oxazine-2-carboxamide, 4,6,7,9-tetrahydro-3-hydroxy-9,9-diethyl-4-oxo-N-[[2-(tetrahydro-1,1-dioxido-2H-1,2-thiazin-2-yl)phenyl]methyl]], the half-inhibitory concentration (IC50) fell in the range of 0.002 to 0.1 µM. As to `CC1(C)OCCn2c1nc(C(=O)NCCCc1ccccc1)c(O)c2=O` [Example 217, Pyrimido[2,1-c][1,4]oxazine-2-carboxamide, 4,6,7,9-tetrahydro-3-hydroxy-9,9-dimethyl-4-oxo-N-(3-phenylpropyl)-], the half-inhibitory concentration (IC50) lay in the range of 0.002 to 0.1 µM. As to `CC1(C)OCCn2c1nc(C(=O)NCc1ccc3c(c1)CCO3)c(O)c2=O` [Example 250, Pyrimido[2,1-c][1,4]oxazine-2-carboxamide, N-[(2,3-dihydro-5-benzofuranyl)methyl]-4,6,7,9-tetrahydro-3-hydroxy-9,9-dimethyl-4-oxo-], the IC50 lay in the range of 0.002 to 0.1 µM.

As for `CC1(C)OCCn2c1nc(C(=O)NCc1ccccc1-c1cccc(C#N)c1)c(O)c2=O` [Example 167, Pyrimido[2,1-c][1,4]oxazine-2-carboxamide, N-[(3′-cyano[1,1′-biphenyl]-2-yl)methyl]-4,6,7,9-tetrahydro-3-hydroxy-9,9-dimethyl-4-oxo-], the half-maximal inhibitory concentration (IC50) was 0.002 to 0.1 µM.

With `CCNc1cc(F)ccc1CNC(=O)c1nc2n(c(=O)c1O)CCOC2(C)C` [Example 87, Pyrimido[2,1-c][1,4]oxazine-2-carboxamide, N-[[2-(ethylamino)-4-fluorophenyl]methyl]-4,6,7,9-tetrahydro-3-hydroxy-9,9-dimethyl-4-oxo-], the 50% inhibitory concentration (IC50) was in the range of 0.002 to 0.1 µM. For `CN(C)S(=O)(=O)c1cc(F)ccc1CNC(=O)c1nc2n(c(=O)c1O)CCOC2(C)C` [Example 108, Pyrimido[2,1-c][1,4]oxazine-2-carboxamide, N-[[2-[(dimethylamino)sulfonyl]-4-fluorophenyl]methyl]-4,6,7,9-tetrahydro-3-hydroxy-9,9-dimethyl-4-oxo-], the IC50 lay within 0.002 to 0.1 µM. For the molecule `Cc1cc(CNC(=O)c2nc3n(c(=O)c2O)CCOC3C(C)C)ccc1F` (centres unmarked) [Example 18, Pyrimido[2,1-c][1,4]oxazine-2-carboxamide, N-[(4-fluoro-3-methylphenyl)methyl]-4,6,7,9-tetrahydro-3-hydroxy-9-(1-methylethyl)-4-oxo-], the half-maximal inhibitory concentration (IC50) lay within 0.002 to 0.1 µM.

`CC1(C)OCCn2c1nc(C(=O)NCc1ccccc1C1=CCCC1)c(O)c2=O` [Example 200, Pyrimido[2,1-c][1,4]oxazine-2-carboxamide, N-[[2-(1-cyclopenten-1-yl)phenyl]methyl]-4,6,7,9-tetrahydro-3-hydroxy-9,9-dimethyl-4-oxo-]: the concentration for half-maximal inhibition (IC50) fell in the range of 0.002 to 0.1 µM.

For the molecule `CC(=O)Nc1cc(F)ccc1CNC(=O)c1nc2n(c(=O)c1O)CCOC2(C)C` [Example 135, Pyrimido[2,1-c][1,4]oxazine-2-carboxamide, N-[[2-(acetylamino)-4-fluorophenyl]methyl]-4,6,7,9-tetrahydro-3-hydroxy-9,9-dimethyl-4-oxo-], the concentration for half-maximal inhibition (IC50) lay in the range of 0.002 to 0.1 µM.

On to `CNC(=O)c1ncn(-c2cc(F)ccc2CNC(=O)c2nc3n(c(=O)c2O)CCOC3(C)C)n1` [Example 65, Pyrimido[2,1-c][1,4]oxazine-2-carboxamide, 4,6,7,9-tetrahydro-3-hydroxy-N-[(1R)-2-hydroxy-1-phenylethyl]-9,9-dimethyl-4-oxo-], for which the IC50 lay in the range of 0.002 to 0.1 µM. With `CC1(C)OCCn2c1nc(C(=O)NCc1ccc(F)cc1S(C)(=O)=O)c(O)c2=O` [Example 101, Pyrimido[2,1-c][1,4]oxazine-2-carboxamide, N-[[4-fluoro-2-(methylsulfonyl)phenyl]methyl]-4,6,7,9-tetrahydro-3-hydroxy-9,9-dimethyl-4-oxo-] the figure was 0.002 to 0.1 µM. `Cc1ccc(F)c(CNC(=O)c2nc3n(c(=O)c2O)CCOC3(C)C)c1F` [Example 275, Pyrimido[2,1-c][1,4]oxazine-2-carboxamide, N-[(2,6-difluoro-3-methylphenyl)methyl]-4,6,7,9-tetrahydro-3-hydroxy-9,9-dimethyl-4-oxo-]: the 50% inhibitory concentration (IC50) is 0.002 to 0.1 µM. `CN(C)S(=O)(=O)c1cc(F)ccc1CNC(=O)c1nc2n(c(=O)c1O)CCCOC2(C)C` [Example 204, 6H-Pyrimido[2,1-c][1,4]oxazepine-2-carboxamide, N-[[2-[(dimethylamino)sulfonyl]-4-fluorophenyl]methyl]-4,7,8,10-tetrahydro-3-hydroxy-10,10-dimethyl-4-oxo-]: the IC50 was in the range of 0.002 to 0.1 µM. For `CC1(C)OCCn2c1nc(C(=O)NCc1ccc(F)c(F)c1)c(O)c2=O` [Example 33, Pyrimido[2,1-c][1,4]oxazine-2-carboxamide, N-[(3,4-difluorophenyl)methyl]-4,6,7,9-tetrahydro-3-hydroxy-9,9-dimethyl-4-oxo-], the IC50 lay in the range of 0.002 to 0.1 µM.

By IC50 is commonly meant the concentration at which inhibition is half-maximal.
